Experimental data as given in ChEMBL document CHEMBL1201862, “PubChem BioAssay data set” (2004).
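A five-concentration, 48-hour dose response in 96-well plates underlies each endpoint, interpolated linearly between surrounding concentrations. GI50: concentration for 50% inhibition of growth.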 Activity calls are given as the source filed them. No stated cut-off is given here; in the data, active = GI50 up to about 1.1 µM and inactive = higher.

Tests used:
Test in all cases: DTP human tumour cell line panel, 48 h
OVCAR-3 = system: OVCAR-3
DU-145 = system: DU-145
UACC-62 = system: UACC-62
A498 = system: A498
OVCAR-5 = system: OVCAR-5
NCI-H23 = system: NCI-H23
SK-MEL-5 = system: SK-MEL-5
SK-OV-3 = system: SK-OV-3
SF-295 = system: SF-295
SNB-75 = system: SNB-75
KM12 = system: KM12
HCT-116 = system: HCT-116
Malme-3M = system: Malme-3M
NCI-H226 = system: NCI-H226
OVCAR-8 = system: OVCAR-8
SNB-19 = system: SNB-19
NCI/ADR-RES = system: NCI/ADR-RES
SK-MEL-2 = system: SK-MEL-2
IGROV-1 = system: IGROV-1
HOP-92 = system: HOP-92

Measured: GI50

CCN(CC)C1Oc2cc3c(cc2C(c2cccc(OC)c2O)C1C)OCO3 (stereo unspecified)
inactive: OVCAR-3 1.94 µM | DU-145 5.35 µM | UACC-62 5.24 µM | A498 2.36 µM | OVCAR-5 13.8 µM | NCI-H23 5.79 µM | SK-MEL-5 2.97 µM | SK-OV-3 4.99 µM | SF-295 3.08 µM | SNB-75 2.81 µM | KM12 4.1 µM | HCT-116 4.28 µM | Malme-3M 3.94 µM | NCI-H226 3.44 µM | OVCAR-8 13.7 µM | SNB-19 3.76 µM | NCI/ADR-RES 4.62 µM | SK-MEL-2 4.52 µM | IGROV-1 8.04 µM

c1ccc(CCNc2ccccn2)nc1
inactive: OVCAR-3 > 100 µM | DU-145 > 100 µM | UACC-62 > 100 µM | A498 > 100 µM | OVCAR-5 > 100 µM | NCI-H23 > 100 µM | SK-MEL-5 > 100 µM | SK-OV-3 > 100 µM | SF-295 > 100 µM | HOP-92 > 100 µM | KM12 > 100 µM | HCT-116 > 100 µM | Malme-3M > 100 µM | NCI-H226 > 100 µM | OVCAR-8 > 100 µM | SNB-19 > 100 µM | NCI/ADR-RES > 100 µM | SK-MEL-2 > 100 µM | IGROV-1 > 100 µM

CCOC(=O)c1ccc(C(=O)C(C(C)=O)C(=O)OC(C)(C)C)n1C (stereo unspecified)
inactive: OVCAR-3 > 100 µM | DU-145 > 100 µM | UACC-62 > 100 µM | A498 > 100 µM | OVCAR-5 > 100 µM | NCI-H23 > 100 µM | SK-MEL-5 > 100 µM | SK-OV-3 > 100 µM | SF-295 > 100 µM | SNB-75 78.5 µM | KM12 > 100 µM | HCT-116 > 100 µM | Malme-3M > 100 µM | NCI-H226 > 100 µM | OVCAR-8 > 100 µM | SNB-19 > 100 µM | NCI/ADR-RES > 100 µM | SK-MEL-2 > 100 µM | IGROV-1 > 100 µM

Clc1ccc(OCC2NC3CCC2CC3)cn1 (stereo unspecified)
inactive: OVCAR-3 60.4 µM | DU-145 59.3 µM | UACC-62 17.7 µM | OVCAR-5 52 µM | NCI-H23 49.2 µM | SK-MEL-5 17.6 µM | SK-OV-3 52.7 µM | SF-295 19.8 µM | HOP-92 35.4 µM | SNB-75 61 µM | KM12 18.4 µM | HCT-116 20.7 µM | Malme-3M 19.5 µM | NCI-H226 > 100 µM | OVCAR-8 31.5 µM | SNB-19 34.4 µM | NCI/ADR-RES 50.1 µM | SK-MEL-2 18 µM | IGROV-1 38.2 µM

Cc1cc2c(=O)[nH]nc(N)c2c(N)n1
inactive: DU-145 > 100 µM | UACC-62 > 100 µM | A498 > 100 µM | OVCAR-5 > 100 µM | NCI-H23 > 100 µM | SK-MEL-5 > 100 µM | SK-OV-3 > 100 µM | SF-295 > 100 µM | HOP-92 > 100 µM | KM12 > 100 µM | HCT-116 > 100 µM | Malme-3M > 100 µM | NCI-H226 > 100 µM | OVCAR-8 > 100 µM | SNB-19 > 100 µM | NCI/ADR-RES > 100 µM | SK-MEL-2 > 100 µM | IGROV-1 > 100 µM

O=C1c2ccccc2-c2c1c(-c1cccc(Br)c1)nc1ccc3ccccc3c21
inactive: OVCAR-3 > 100 µM | DU-145 > 100 µM | UACC-62 > 100 µM | A498 > 100 µM | OVCAR-5 > 100 µM | NCI-H23 > 100 µM | SK-OV-3 > 100 µM | SF-295 > 100 µM | SNB-75 > 100 µM | KM12 > 100 µM | HCT-116 > 100 µM | Malme-3M > 100 µM | NCI-H226 > 100 µM | OVCAR-8 > 100 µM | SNB-19 > 100 µM | NCI/ADR-RES > 100 µM | SK-MEL-2 > 100 µM

O=C1c2ccccc2C(=O)N1CCSCC(CO)SCCN1C(=O)c2ccccc2C1=O (stereo unspecified)
inactive: DU-145 > 100 µM | UACC-62 90.2 µM | A498 > 100 µM | OVCAR-5 > 100 µM | NCI-H23 > 100 µM | SK-MEL-5 > 100 µM | SK-OV-3 > 100 µM | SF-295 > 100 µM | HOP-92 > 100 µM | KM12 > 100 µM | HCT-116 > 100 µM | Malme-3M > 100 µM | NCI-H226 > 100 µM | OVCAR-8 > 100 µM | SNB-19 > 100 µM | NCI/ADR-RES 74.8 µM | SK-MEL-2 > 100 µM | IGROV-1 > 100 µM

CCOC(=O)c1ccc2c(c1)Cc1cc([N+](=O)[O-])ccc1-2
inactive: OVCAR-3 46.6 µM | DU-145 > 100 µM | UACC-62 50 µM | A498 28.4 µM | OVCAR-5 57.4 µM | NCI-H23 32.4 µM | SK-MEL-5 17.3 µM | SK-OV-3 29.6 µM | SF-295 23.1 µM | HOP-92 26.1 µM | KM12 69.3 µM | HCT-116 59.4 µM | Malme-3M > 100 µM | NCI-H226 17.8 µM | OVCAR-8 42 µM | SNB-19 > 100 µM | NCI/ADR-RES 25.1 µM | IGROV-1 10.6 µM

CCCCOC(=O)Nc1ccc(S(=O)(=O)Nc2ccccc2Cl)cc1
inactive: OVCAR-3 19.1 µM | DU-145 30.3 µM | UACC-62 17.1 µM | A498 12.8 µM | OVCAR-5 25.8 µM | NCI-H23 25.6 µM | SK-MEL-5 12 µM | SK-OV-3 16.8 µM | SF-295 17.3 µM | HOP-92 13.7 µM | KM12 24 µM | HCT-116 22.4 µM | Malme-3M 24.8 µM | OVCAR-8 21.3 µM | SNB-19 22.6 µM | NCI/ADR-RES 18.2 µM | SK-MEL-2 18.1 µM | IGROV-1 21.7 µM

COCN1C(=O)[C@@H]2CCCN2C(=O)c2cc(OC)c(Cc3ccccc3)cc21
inactive: DU-145 > 100 µM | UACC-62 > 100 µM | A498 > 100 µM | OVCAR-5 > 100 µM | NCI-H23 > 100 µM | SK-OV-3 > 100 µM | SF-295 > 100 µM | SNB-75 60.4 µM | KM12 > 100 µM | HCT-116 62.4 µM | Malme-3M > 100 µM | OVCAR-8 > 100 µM | SNB-19 > 100 µM | NCI/ADR-RES > 100 µM | SK-MEL-2 > 100 µM | IGROV-1 62.7 µM

CSc1ncnc2c1cnn2Cc1cnnn1COCC(O)CO (stereo unspecified)
inactive: OVCAR-3 > 100 µM | DU-145 > 100 µM | UACC-62 > 100 µM | A498 > 100 µM | OVCAR-5 > 100 µM | NCI-H23 > 100 µM | SK-MEL-5 > 100 µM | SK-OV-3 > 100 µM | SF-295 > 100 µM | KM12 > 100 µM | HCT-116 > 100 µM | NCI-H226 > 100 µM | OVCAR-8 > 100 µM | SNB-19 > 100 µM | NCI/ADR-RES > 100 µM | SK-MEL-2 > 100 µM | IGROV-1 > 100 µM

CSc1cc(Cl)c(C)cc1S(=O)(=O)NC(=O)NNc1cnc2ccccc2n1
inactive: OVCAR-3 > 100 µM | DU-145 > 100 µM | A498 > 100 µM | OVCAR-5 > 100 µM | SK-MEL-5 > 100 µM | SK-OV-3 > 100 µM | SF-295 > 100 µM | KM12 > 100 µM | HCT-116 > 100 µM | Malme-3M > 100 µM | NCI-H226 > 100 µM | OVCAR-8 > 100 µM | SNB-19 > 100 µM | NCI/ADR-RES > 100 µM | SK-MEL-2 > 100 µM | IGROV-1 > 100 µM

C=C1CCCC2[C@](C)(CC3=C(Cl)C(=O)C=C(OC)C3=O)C(C)CC[C@]12C (stereo partly specified)
inactive: OVCAR-3 5.93 µM | DU-145 8.04 µM | UACC-62 6.4 µM | A498 8.49 µM | OVCAR-5 2.94 µM | NCI-H23 4.49 µM | SK-MEL-5 6.43 µM | SK-OV-3 20.7 µM | SF-295 7.41 µM | HOP-92 6.12 µM | KM12 2.26 µM | HCT-116 1.75 µM | Malme-3M 8.18 µM | NCI-H226 7.6 µM | OVCAR-8 2.93 µM | SNB-19 7.21 µM | NCI/ADR-RES 3.99 µM | SK-MEL-2 6.64 µM | IGROV-1 1.9 µM

COC(=O)c1c2c(cc3c1CCC3)CCC2
inactive: OVCAR-3 > 100 µM | DU-145 65.8 µM | UACC-62 51.1 µM | A498 28.6 µM | OVCAR-5 > 100 µM | NCI-H23 80.7 µM | SK-MEL-5 15.9 µM | SK-OV-3 91.4 µM | SF-295 29.9 µM | SNB-75 28.4 µM | KM12 65.3 µM | HCT-116 39.6 µM | Malme-3M 48.2 µM | NCI-H226 54.7 µM | OVCAR-8 > 100 µM | SNB-19 > 100 µM | NCI/ADR-RES > 100 µM | SK-MEL-2 24.8 µM | IGROV-1 > 100 µM

CCOC(=O)c1cnc(-n2[nH]c(C)c(CCO)c2=O)[nH]c1=O
inactive: OVCAR-3 > 100 µM | DU-145 > 100 µM | UACC-62 > 100 µM | OVCAR-5 > 100 µM | NCI-H23 > 100 µM | SK-MEL-5 > 100 µM | SK-OV-3 > 100 µM | SF-295 > 100 µM | HOP-92 > 100 µM | SNB-75 88.3 µM | KM12 > 100 µM | HCT-116 > 100 µM | Malme-3M > 100 µM | NCI-H226 > 100 µM | OVCAR-8 > 100 µM | SNB-19 > 100 µM | NCI/ADR-RES > 100 µM | SK-MEL-2 > 100 µM | IGROV-1 > 100 µM
